# Reference: ChEMBL document CHEMBL1201862, “PubChem BioAssay data set” (2004)
# Calls of active or inactive are those of the source.
# Columns and labels:
# [1] = cytotoxicity in HEK-293T cells, dose response, cytotoxicity control for TCR NF-kB inhibitor project, luminescence, T-cell screen hits (AID 489026); assay type: functional, cell-based;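 note: cells exposed to compound about 14 hours before the viability readout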
# [2] = inhibitors of SNCA 5'UTR-driven translation, confirmation, luminescence, H4 neuroglioblastoma cells, dose confirmation (AID 2454); assay type: functional, cell-based;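 note: H4 neuroglioblastoma cells carrying an alpha-synuclein 5'UTR luciferase reporter; potency for inhibition of the luciferase signal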
# cells = assay type: functional, cell-based
# [3] = inhibitors of SNCA 5'UTR-driven reporter translation, confirmation, H4 neuroglioma cells, luminescence (AID 1988); assay type: functional, cell-based
# [4] = luciferase reporter signal reduction – luminescence, H4-C neuroglioblastoma cells, dose response (AID 2458); assay type: functional, cell-based;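 note: H4 neuroglioblastoma cells stably carrying a luciferase reporter gene fusion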
# [5] = Luminescence Cell-Based Dose Response HTS to Identify Inhibitors of 5'UTR Stem-Loop Driven Prion Protein mRNA Translation in H4 Neuroglioblastoma Cells. [Related pubchem assays: 1827 (Project Summary), 1813 (Primary HTS)]; assay type: functional
# [6] = inhibitors of firefly luciferase expression or activity, dose response, H4 neuroglioma cells, luminescence (AID 1990); assay type: functional, cell-based
# Cytochrome P450 2C9 = Cytochrome P450 2C9 (Homo sapiens, UniProt P11712); conditions: Potency
# Chain of Cytochrome P450 2C9 (P11712 whole entry): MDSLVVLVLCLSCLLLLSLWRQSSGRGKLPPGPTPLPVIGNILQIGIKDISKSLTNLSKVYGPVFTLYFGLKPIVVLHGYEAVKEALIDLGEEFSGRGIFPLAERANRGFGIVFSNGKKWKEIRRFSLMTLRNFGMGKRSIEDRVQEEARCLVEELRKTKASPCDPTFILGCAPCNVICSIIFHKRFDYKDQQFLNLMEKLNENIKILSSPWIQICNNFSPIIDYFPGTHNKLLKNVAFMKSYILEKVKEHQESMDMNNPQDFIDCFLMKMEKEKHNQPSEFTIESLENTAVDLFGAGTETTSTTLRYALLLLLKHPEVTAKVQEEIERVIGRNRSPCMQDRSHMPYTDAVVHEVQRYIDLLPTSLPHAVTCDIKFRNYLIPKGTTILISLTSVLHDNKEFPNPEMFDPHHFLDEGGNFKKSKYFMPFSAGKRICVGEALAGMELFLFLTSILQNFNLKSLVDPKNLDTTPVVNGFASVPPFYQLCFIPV
# Aspartyl aminopeptidase = molecular target: T1, Aspartyl aminopeptidase (Plasmodium falciparum 3D7, UniProt Q8I2J3)
# T1 sequence (Q8I2J3 whole entry): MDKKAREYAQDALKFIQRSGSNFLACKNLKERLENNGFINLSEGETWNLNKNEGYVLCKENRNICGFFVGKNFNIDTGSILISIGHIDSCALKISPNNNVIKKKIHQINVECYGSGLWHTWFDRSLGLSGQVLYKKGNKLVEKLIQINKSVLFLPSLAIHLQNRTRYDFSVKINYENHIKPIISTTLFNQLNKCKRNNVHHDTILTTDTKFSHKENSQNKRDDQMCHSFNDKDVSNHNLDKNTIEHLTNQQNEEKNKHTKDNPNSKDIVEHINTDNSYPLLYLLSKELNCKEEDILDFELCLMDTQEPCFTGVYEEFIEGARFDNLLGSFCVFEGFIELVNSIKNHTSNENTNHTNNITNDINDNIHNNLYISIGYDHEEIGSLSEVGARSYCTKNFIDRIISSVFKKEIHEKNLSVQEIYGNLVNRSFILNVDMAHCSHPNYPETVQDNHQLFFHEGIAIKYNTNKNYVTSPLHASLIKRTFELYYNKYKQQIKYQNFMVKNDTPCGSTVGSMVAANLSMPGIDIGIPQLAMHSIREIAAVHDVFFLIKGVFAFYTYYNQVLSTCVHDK
# Procathepsin L = Procathepsin L (Homo sapiens, UniProt P07711)
# Chain of Procathepsin L (P07711 whole entry): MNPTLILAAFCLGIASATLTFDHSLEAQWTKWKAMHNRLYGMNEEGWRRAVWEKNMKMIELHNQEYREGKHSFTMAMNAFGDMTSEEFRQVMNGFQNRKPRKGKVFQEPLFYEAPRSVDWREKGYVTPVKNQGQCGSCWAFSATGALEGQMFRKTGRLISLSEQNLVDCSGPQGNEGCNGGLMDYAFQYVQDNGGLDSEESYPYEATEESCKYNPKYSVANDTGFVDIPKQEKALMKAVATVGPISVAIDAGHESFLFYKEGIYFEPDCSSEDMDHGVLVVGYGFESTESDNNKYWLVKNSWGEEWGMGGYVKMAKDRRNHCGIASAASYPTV
# [7] = molecular target: Lysosomal acid glucosylceramidase (Homo sapiens, UniProt P04062); assay: Dose response cell-based high throughput screening assay to identify enhancers of beta-glucosidase activity. [Related pubchem assays: 784 ]; assay type: functional
# Chain of Lysosomal acid glucosylceramidase (P04062 whole entry): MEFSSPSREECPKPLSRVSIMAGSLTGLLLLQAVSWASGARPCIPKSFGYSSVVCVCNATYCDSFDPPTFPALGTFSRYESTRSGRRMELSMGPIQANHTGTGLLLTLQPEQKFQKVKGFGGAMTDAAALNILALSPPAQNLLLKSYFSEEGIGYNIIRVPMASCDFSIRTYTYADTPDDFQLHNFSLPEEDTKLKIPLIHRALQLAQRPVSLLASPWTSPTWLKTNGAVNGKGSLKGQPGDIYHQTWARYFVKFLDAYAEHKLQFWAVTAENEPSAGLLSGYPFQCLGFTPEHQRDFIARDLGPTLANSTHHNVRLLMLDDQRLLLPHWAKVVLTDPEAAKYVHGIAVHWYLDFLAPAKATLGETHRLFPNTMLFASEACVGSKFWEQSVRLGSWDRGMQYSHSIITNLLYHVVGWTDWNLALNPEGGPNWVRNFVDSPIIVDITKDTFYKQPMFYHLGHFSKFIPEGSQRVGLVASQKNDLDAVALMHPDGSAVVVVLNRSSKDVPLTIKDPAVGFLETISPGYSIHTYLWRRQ
# Insulin-degrading enzyme = molecular target: T2, Insulin-degrading enzyme (Homo sapiens, UniProt P14735); assay: Dose Response: Fluorescence polarization-based cell-based high throughput dose response assay for inhibitors of insulin-degrading enzyme (IDE). [Related pubchem assays: 434962 (Primary screen (IDE inhibitors in singlicate)), 449730 (Counterscreen (Cytotoxicity in triplicate)), 435028 (Confirmation (IDE inhibitors in triplicate)), 434984 (Summary …; assay type: functional
# T2 sequence (P14735 whole entry): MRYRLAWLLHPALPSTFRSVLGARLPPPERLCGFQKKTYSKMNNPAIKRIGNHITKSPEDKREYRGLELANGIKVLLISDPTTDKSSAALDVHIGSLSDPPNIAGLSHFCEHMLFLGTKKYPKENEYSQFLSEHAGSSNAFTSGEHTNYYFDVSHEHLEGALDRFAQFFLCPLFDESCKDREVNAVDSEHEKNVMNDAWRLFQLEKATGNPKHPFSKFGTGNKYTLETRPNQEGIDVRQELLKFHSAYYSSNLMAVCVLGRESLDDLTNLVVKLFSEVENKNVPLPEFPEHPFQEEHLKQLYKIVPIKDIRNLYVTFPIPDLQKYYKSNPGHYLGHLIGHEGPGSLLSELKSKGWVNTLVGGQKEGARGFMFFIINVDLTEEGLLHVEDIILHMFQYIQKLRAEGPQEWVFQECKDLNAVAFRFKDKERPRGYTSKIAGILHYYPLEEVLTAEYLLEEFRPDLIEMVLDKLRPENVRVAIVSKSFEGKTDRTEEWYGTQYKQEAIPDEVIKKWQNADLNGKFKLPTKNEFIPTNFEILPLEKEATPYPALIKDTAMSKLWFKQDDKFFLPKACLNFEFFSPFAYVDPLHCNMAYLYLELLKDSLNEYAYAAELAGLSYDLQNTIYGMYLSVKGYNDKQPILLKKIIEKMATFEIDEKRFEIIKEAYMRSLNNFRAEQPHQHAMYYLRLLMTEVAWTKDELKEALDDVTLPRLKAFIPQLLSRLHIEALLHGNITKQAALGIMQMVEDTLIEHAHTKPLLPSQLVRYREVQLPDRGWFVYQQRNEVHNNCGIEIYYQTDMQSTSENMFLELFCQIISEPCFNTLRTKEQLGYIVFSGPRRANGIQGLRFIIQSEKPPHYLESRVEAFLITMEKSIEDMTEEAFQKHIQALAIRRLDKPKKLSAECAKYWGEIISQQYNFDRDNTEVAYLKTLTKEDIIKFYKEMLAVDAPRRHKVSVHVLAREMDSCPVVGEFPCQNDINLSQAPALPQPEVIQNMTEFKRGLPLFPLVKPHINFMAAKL
# [8] = molecular target: T3, Histone-lysine N-methyltransferase NSD2 (Homo sapiens, UniProt O96028); assay type: biochemical
# T3 sequence (O96028 whole entry): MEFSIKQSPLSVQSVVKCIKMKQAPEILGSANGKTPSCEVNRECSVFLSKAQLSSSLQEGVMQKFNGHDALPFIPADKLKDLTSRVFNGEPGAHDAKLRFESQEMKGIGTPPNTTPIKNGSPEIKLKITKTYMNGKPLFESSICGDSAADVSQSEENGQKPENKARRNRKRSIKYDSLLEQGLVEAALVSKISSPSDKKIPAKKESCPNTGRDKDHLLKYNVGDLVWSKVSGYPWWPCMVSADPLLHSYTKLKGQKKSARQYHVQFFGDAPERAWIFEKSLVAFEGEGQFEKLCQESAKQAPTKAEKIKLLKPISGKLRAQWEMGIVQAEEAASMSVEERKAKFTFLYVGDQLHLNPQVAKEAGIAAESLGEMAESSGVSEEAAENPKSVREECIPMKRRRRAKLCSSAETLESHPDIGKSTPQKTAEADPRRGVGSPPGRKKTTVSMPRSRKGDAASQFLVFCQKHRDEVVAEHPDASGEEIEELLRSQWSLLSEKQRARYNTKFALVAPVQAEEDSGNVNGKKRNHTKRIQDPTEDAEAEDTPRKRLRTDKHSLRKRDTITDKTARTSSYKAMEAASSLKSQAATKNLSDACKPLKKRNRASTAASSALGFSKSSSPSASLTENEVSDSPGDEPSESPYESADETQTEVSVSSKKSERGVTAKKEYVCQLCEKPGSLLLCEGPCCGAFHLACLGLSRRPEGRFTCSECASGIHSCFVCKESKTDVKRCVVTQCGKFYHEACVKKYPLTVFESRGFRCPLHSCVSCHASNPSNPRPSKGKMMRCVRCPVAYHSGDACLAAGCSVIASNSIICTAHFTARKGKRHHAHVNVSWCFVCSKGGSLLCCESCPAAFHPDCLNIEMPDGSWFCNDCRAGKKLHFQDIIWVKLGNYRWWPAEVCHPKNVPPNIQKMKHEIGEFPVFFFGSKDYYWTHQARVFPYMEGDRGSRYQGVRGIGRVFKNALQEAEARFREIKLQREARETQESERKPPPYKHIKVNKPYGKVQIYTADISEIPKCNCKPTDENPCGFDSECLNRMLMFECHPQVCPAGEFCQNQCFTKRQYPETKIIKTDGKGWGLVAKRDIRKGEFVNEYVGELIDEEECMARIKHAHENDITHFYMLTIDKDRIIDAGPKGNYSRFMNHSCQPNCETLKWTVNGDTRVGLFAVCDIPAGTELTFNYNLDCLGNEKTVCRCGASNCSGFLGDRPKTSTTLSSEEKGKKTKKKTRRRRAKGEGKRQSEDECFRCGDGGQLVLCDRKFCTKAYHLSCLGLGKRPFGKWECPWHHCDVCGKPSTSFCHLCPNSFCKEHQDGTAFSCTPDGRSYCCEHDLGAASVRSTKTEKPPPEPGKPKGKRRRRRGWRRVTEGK
# [9] = Counterscreen for IDE inhibitors: Luminescence-based cell-based high throughput dose response assay to identify compounds that are cytotoxic to HEK cells. [Related pubchem assays: 434962 (Primary screen (IDE inhibitors in singlicate)), 449730 (Counterscreen (Cytotoxicity in triplicate)), 435028 (Confirmation (IDE inhibitors in triplicate)) …; assay type: functional; conditions: HEK293
# [10] = molecular target: T4, Calpain-2 catalytic subunit (Sus scrofa, UniProt P43367); assay: pig calpain II inhibitor potency, dose response, biochemical, fluorogenic peptide substrate (AID 1420); assay type: functional
# T4 sequence (P43367 whole entry): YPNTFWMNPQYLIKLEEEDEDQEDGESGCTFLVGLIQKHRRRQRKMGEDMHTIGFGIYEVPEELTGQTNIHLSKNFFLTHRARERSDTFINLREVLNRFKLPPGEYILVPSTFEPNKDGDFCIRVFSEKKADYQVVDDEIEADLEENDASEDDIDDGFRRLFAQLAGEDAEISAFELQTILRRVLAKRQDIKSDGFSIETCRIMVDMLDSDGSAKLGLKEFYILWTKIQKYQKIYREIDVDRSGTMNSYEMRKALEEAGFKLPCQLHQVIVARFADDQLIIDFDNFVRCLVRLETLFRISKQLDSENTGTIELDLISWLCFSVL
# Large T antigen = Large T antigen (Simian virus 40, UniProt P03070); assay type: functional, Betapolyomavirus macacae;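 note: Confirmatory-stage PubChem screen for compounds that inhibit SV40 T antigen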
# Chain of Large T antigen (P03070 whole entry): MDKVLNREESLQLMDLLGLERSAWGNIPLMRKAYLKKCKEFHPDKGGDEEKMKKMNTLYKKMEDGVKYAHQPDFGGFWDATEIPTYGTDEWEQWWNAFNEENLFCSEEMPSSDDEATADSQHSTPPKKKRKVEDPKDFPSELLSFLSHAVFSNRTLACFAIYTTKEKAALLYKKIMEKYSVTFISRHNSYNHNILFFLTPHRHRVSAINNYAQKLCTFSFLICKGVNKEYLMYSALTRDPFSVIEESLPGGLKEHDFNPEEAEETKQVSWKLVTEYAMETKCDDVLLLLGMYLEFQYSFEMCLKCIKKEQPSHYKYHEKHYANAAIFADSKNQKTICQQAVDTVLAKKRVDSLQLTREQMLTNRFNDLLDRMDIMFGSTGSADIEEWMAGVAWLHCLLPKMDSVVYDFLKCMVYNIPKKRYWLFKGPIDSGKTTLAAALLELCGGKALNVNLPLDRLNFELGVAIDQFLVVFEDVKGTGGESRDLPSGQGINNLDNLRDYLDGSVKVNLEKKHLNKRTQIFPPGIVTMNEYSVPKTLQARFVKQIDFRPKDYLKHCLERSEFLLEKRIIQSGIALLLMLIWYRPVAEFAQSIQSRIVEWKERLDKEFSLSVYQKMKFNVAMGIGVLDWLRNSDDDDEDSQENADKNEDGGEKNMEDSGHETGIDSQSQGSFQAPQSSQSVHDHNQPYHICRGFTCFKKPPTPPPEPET
# [11] = molecular target: T5, Eukaryotic translation initiation factor 2-alpha kinase 3 (Homo sapiens, UniProt Q9NZJ5); assay: Dose response cell-based high-throughput screening assay to measure PERK inhibition. [Related pubchem assays: 1416 ]; assay type: functional
# T5 sequence (Q9NZJ5 whole entry): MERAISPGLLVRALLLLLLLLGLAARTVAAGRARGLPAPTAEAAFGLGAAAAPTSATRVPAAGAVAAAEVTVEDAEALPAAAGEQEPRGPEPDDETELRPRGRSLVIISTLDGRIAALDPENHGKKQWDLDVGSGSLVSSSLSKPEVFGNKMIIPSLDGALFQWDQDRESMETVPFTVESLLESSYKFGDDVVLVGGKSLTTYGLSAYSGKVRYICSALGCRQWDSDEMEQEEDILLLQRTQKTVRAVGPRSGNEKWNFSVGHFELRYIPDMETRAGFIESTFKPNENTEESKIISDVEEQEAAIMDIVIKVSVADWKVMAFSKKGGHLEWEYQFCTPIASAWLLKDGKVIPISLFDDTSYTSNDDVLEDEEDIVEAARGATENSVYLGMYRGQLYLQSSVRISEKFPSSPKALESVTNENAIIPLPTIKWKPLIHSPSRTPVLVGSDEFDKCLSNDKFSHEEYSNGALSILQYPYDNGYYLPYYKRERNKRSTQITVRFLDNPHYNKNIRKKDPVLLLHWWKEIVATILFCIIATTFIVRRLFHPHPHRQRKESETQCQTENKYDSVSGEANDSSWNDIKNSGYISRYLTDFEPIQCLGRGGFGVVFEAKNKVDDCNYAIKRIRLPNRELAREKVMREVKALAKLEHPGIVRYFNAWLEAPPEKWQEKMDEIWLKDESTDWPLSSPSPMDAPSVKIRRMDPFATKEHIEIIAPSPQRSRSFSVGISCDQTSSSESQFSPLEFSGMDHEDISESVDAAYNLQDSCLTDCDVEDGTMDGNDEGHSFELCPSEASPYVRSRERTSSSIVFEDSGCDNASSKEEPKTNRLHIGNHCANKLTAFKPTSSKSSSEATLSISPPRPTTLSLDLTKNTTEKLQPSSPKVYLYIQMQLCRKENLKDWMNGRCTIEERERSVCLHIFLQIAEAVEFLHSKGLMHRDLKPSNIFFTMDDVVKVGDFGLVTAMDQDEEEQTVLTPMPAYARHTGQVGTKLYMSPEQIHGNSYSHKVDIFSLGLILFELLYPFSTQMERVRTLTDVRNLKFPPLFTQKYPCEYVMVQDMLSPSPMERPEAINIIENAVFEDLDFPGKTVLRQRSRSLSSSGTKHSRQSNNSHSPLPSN
# [12] = molecular target: T5, Eukaryotic translation initiation factor 2-alpha kinase 3; assay: Counterscreen assay for PERK inhibitors: Dose response cell-based high throughput screening assay to measure inhibition of PERK at 6 hours. [Related pubchem assays: 1522, 1416 ]; assay type: functional
smiles,measurement,setting,value
CC1=C([N+](=O)[O-])C(c2ccccc2)C2=C(O)c3ccccc3C2=N1 (configuration not stated),IC50,[1],58.8 µM (inactive)
same,EC50,[2],4.09 µM (active)
same,EC50,cells,> 12 µM (not active)
same,EC50,[3],< 0.1 µM (active)
same,EC50,[4],> 12 µM (not active)
same,EC50,[5],4.95 µM (active)
same,EC50,[6],7.36 µM (active)
CC(C)C[C@@H](CC(=O)N[C@@H](CCCN)CC(=O)N[C@@H]1CCNC[C@H]1C(=O)N[C@H](CC(=O)N[C@@H](CCC(=O)O)CC(=O)O)Cc1c[nH]c2ccccc12)NC(=O)[C@@H]1CCCC[C@H]1N,AC50,Cytochrome P450 2C9,31.6 µM (inconclusive)
O=C1/C(=C/Nn2cnnc2)c2ccccc2C(=O)N1c1ccccc1,IC50,Aspartyl aminopeptidase,1.86 µM (active)
same,IC50,Procathepsin L,> 59.6 µM (not active)
CCOC(=O)N1CCN(C(=O)c2ccc3c(=O)n(Cc4ccccc4)c(=S)[nH]c3c2)CC1,EC50,[7],> 10 µM (not active)
Cc1cccn2c(=O)c3cc(C(=O)NCCCn4ccnc4)n(C)c3nc12,EC50,[7],> 10 µM (not active)
CN1CCC/C1=C/C=C1\SC(=S)NC1=O,IC50,Insulin-degrading enzyme,8.16 µM (active)
same,AC50,[8],> 20 µM (inactive)
same,IC50,[9],> 55.6 µM (not active)
same,IC50,[10],13.4 µM (not active)
same,IC50,Large T antigen,30.2 µM (active)
COC(=O)CN(n1cnnc1)S(=O)(=O)c1ccccc1Cl,IC50,Aspartyl aminopeptidase,0.381 µM (active)
same,IC50,Procathepsin L,> 59.6 µM (not active)
C=C(C)C(O)/C=C/c1ccc(C)cc1 (configuration not stated),AC50,Cytochrome P450 2C9,3.16 µM (inconclusive)
Cc1ccc2cc(/C=N/Nc3nc4ccccc4[nH]3)c(Cl)nc2c1,EC50,[11],> 55.7 µM (not active)
same,EC50,[12],> 55.7 µM (not active)
